How the values were obtained:
SHV-5 = target: T1, SHV-5 (Klebsiella pneumoniae, UniProt P0A3M1); experiment: β-lactamase enzyme inhibition assay, SHV-5 (cefotaxime substrate); type: biochemical
T1 construct: made in house; host or cells: E. coli BL21(DE3)
Outline: (§1)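 Read-out is the rate of β-lactam ring hydrolysis monitored by absorbance: 300 nm for imipenem with KPC-2 and 260 nm for cefotaxime with SHV-5. Recombinant native enzymes were first incubated with compound at 37 °C for 15 min. The IC50 is the inhibitor concentration that halves the initial hydrolysis rate.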

KPC-2 = target: T2, KPC-2 (Klebsiella pneumoniae, UniProt Q9F663); experiment: β-lactamase enzyme inhibition assay, KPC-2 (imipenem substrate); type: biochemical; details: Class A; imipenem substrate, 300 nm; read-out: KPC-2
T2 construct: made in house; host or cells: E. coli BL21(DE3)
T2 sequence (Q9F663 25-293, looked up): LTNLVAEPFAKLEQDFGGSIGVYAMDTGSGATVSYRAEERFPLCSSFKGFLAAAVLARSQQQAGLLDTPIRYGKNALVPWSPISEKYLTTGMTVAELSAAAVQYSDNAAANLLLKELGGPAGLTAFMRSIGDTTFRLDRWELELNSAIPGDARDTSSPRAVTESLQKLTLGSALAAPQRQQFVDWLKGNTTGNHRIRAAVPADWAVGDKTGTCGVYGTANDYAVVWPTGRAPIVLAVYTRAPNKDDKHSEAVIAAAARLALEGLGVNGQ
Outline: as §1

VIM-2 = target: T3, VIM-2 (Escherichia coli, UniProt Q5U7L7); experiment: β-lactamase enzyme inhibition assay, VIM-2 (nitrocefin substrate); type: biochemical; details: Class B; nitrocefin substrate, 486 nm; read-out: VIM-2
T3 construct: made in house; host or cells: E. coli BL21(DE3)
Outline: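 Purified VIM-2 (Q sepharose anion exchange, Hepes pH 7.5, >90% pure) was preincubated with inhibitor at 37 °C for 15 min, then nitrocefin added at 100 μM final. Absorbance at 486 nm was followed for 10 min; IC50 was taken from maximum hydrolysis rates relative to inhibitor-free controls.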

AmpC = target: T4, AmpC (Enterobacter cloacae, UniProt P05364); experiment: β-lactamase enzyme inhibition assay, p99 AmpC (nitrocefin substrate); type: biochemical
T4 construct: made in house; host or cells: E. coli BL21(DE3)
T4 sequence (P05364 21-381): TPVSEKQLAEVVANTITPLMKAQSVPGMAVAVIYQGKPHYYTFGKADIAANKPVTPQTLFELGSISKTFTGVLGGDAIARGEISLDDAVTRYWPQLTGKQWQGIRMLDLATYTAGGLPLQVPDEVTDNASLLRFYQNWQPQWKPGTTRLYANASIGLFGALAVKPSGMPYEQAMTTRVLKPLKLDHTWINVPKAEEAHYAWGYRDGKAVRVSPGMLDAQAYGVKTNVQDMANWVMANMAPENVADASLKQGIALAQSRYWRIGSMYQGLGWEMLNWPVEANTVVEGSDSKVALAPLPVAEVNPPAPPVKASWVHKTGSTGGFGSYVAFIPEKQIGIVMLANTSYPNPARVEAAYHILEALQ
Outline: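 Read-out is the rate of β-lactam ring hydrolysis monitored by absorbance. Recombinant native enzymes were first incubated with compound at 37 °C for 15 min. The IC50 is the inhibitor concentration that halves the initial hydrolysis rate.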

OXA-48 = OXA-48 (UniProt Q6XEC0); experiment: β-lactamase enzyme inhibition assay, Class D oxacillinase; type: biochemical; details: read-out: OXA-48
[1] = system: E. coli expressing the Class A Extended Spectrum Beta-Lactamase (ESBL) CTX-M-15; experiment: Broth microdilution MIC assay with ceftazidime, E. coli CTX-M-15; type: cell-based; details: Fixed CAZ (ceftazidime) 4 μg/mL; E. coli ESBL4 CTX-M-15
Outline: (§2)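 Test compound was titrated 2-fold from 16 to 0.125 μg/mL in cation-adjusted Mueller Hinton broth against a fixed 4 μg/ml β-lactam overlay. Plates were inoculated per CLSI broth microdilution, incubated 16-20 hours at 37° C, and the MIC of the test compound was read visually.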

[2] = system: E. cloacae expressing the Class C P99; experiment: Broth microdilution MIC assay with ceftazidime, E. cloacae P99; type: cell-based; details: Fixed CAZ (ceftazidime) 4 μg/mL; E. cl. 144200 p99 AmpC
Outline: as §2

[3] = system: K. pneumoniae expressing the Class A carbapenemase KPC-2; experiment: Broth microdilution MIC assay with meropenem, K. pneumoniae KPC-2; type: cell-based; details: Fixed Mero (meropenem) 4 μg/mL; K. p. 156319 KPC-3
Outline: as §2

[4] = system: P. aeruginosa expressing the Class B carbapenemase VIM-2; experiment: Broth microdilution MIC assay with meropenem, P. aeruginosa VIM-2; type: cell-based; details: Fixed Mero (meropenem) 4 μg/mL; P. aerug. 2775 VIM-2
Outline: as §2

[5] = system: K. pneumoniae expressing the class A carbapenemase KPC-2 and the class B carbapenemase VIM-4; experiment: Broth microdilution MIC assay with meropenem, K. pneumoniae KPC-2 and VIM-4; type: cell-based; details: Fixed Mero (meropenem) 4 μg/mL; K. p. A-1797 KPC-2 VIM-4
Outline: as §2

[6] = system: K. pneumoniae producing the Class D carbapenemase OXA-48; experiment: Broth microdilution MIC assay with meropenem, K. pneumoniae OXA-48; type: cell-based; details: Fixed Mero (meropenem) 4 μg/mL; K. p. 11978 OXA-48
Outline: as §2

T1 sequence (P0A3M1 22-286): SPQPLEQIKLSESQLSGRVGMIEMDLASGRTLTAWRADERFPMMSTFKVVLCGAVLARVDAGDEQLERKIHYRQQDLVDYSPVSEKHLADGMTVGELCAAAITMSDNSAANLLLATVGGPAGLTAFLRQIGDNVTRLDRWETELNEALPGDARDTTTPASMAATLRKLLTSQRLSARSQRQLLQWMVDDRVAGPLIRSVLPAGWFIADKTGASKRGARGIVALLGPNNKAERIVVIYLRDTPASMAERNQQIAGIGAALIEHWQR

Compound | IC50 (SHV-5) [µM] | IC50 (KPC-2) [µM] | IC50 (VIM-2) [µM] | IC50 (AmpC) [µM] | IC50 (OXA-48) [µM] | MIC (μg/mL) of Exemplary Compounds in presence of fixed β-lactams: E. coli ESBL4 CTX-M-15 [1] | MIC (μg/mL) of Exemplary Compounds in presence of fixed β-lactams: E. cl. 144200 p99 AmpC [2] | MIC (μg/mL) of Exemplary Compounds in presence of fixed β-lactams: K. p. 156319 KPC-3 [3] | MIC (μg/mL) of Exemplary Compounds in presence of fixed β-lactams: P. aerug. 2775 VIM-2 [4] | MIC (μg/mL) of Exemplary Compounds in presence of fixed β-lactams: K. p. A-1797 KPC-2 VIM-4 [5] | MIC (μg/mL) of Exemplary Compounds in presence of fixed β-lactams: K. p. 11978 OXA-48 [6]
O=C(Cn1cc(C2CCNC2)nn1)N[C@H]1Cc2cccc(C(=O)O)c2OB1O (stereo partly drawn) [Example 89, (3R)-2-hydroxy-3-(2-(4-(pyrrolidin-3-yl)-1H-1,2,3-triazol-1-yl)acetamido)-3,4-dihydro-2H-benzo[e][1,2]oxaborinine-8-carboxylic acid] | 0.1 to 1 | 0.1 to 1 | 0.1 to 1 | < 0.1 | 1 to 10 | C (C represents an MIC of <1 μg/mL) | C (C represents an MIC of <1 μg/mL) | C (C represents an MIC of <1 μg/mL) | C (C represents an MIC of <1 μg/mL) | B (B represents an MIC between 1 and 16 μg/mL inclusive) | B (B represents an MIC between 1 and 16 μg/mL inclusive)
O=C(Cn1cc(C2CNC2)nn1)N[C@H]1Cc2cccc(C(=O)O)c2OB1O [Example 90, (R)-3-(2-(4-(azetidin-3-yl)-1H-1,2,3-triazol-1-yl)acetamido)-2-hydroxy-3,4-dihydro-2H-benzo[e][1,2]oxaborinine-8-carboxylic acid] | 0.1 to 1 | < 0.1 | 0.1 to 1 | < 0.1 | 1 to 10 | C (C represents an MIC of <1 μg/mL) | C (C represents an MIC of <1 μg/mL) | B (B represents an MIC between 1 and 16 μg/mL inclusive) | C (C represents an MIC of <1 μg/mL) | B (B represents an MIC between 1 and 16 μg/mL inclusive) | B (B represents an MIC between 1 and 16 μg/mL inclusive)
N=C(N)N1CC(c2cn(CC(=O)N[C@H]3Cc4cccc(C(=O)O)c4OB3O)nn2)C1 [Example 91, (R)-3-(2-(4-(1-carbamimidoylazetidin-3-yl)-1H-1,2,3-triazol-1-yl)acetamido)-2-hydroxy-3,4-dihydro-2H-benzo[e][1,2]oxaborinine-8-carboxylic acid] | < 0.1 | < 0.1 | 0.1 to 1 | < 0.1 | 1 to 10 | C (C represents an MIC of <1 μg/mL) | C (C represents an MIC of <1 μg/mL) | C (C represents an MIC of <1 μg/mL) | B (B represents an MIC between 1 and 16 μg/mL inclusive) | B (B represents an MIC between 1 and 16 μg/mL inclusive) | B (B represents an MIC between 1 and 16 μg/mL inclusive)
NCC(O)Cc1cn(CC(=O)N[C@H]2Cc3cccc(C(=O)O)c3OB2O)nn1 (stereo partly drawn) [Example 92, (3R)-3-(2-(4-(3-amino-2-hydroxypropyl)-1H-1,2,3-triazol-1-yl)acetamido)-2-hydroxy-3,4-dihydro-2H-benzo[e][1,2]oxaborinine-8-carboxylic acid] | 0.1 to 1 | < 0.1 | < 0.1 | < 0.1 | 1 to 10 | C (C represents an MIC of <1 μg/mL) | C (C represents an MIC of <1 μg/mL) | C (C represents an MIC of <1 μg/mL) | C (C represents an MIC of <1 μg/mL) | B (B represents an MIC between 1 and 16 μg/mL inclusive) | B (B represents an MIC between 1 and 16 μg/mL inclusive)
N=C(N)NCC(O)Cc1cn(CC(=O)N[C@H]2Cc3cccc(C(=O)O)c3OB2O)nn1 (stereo partly drawn) [Example 93, (3R)-3-(2-(4-(3-guanidino-2-hydroxypropyl)-1H-1,2,3-triazol-1-yl)acetamido)-2-hydroxy-3,4-dihydro-2H-benzo[e][1,2]oxaborinine-8-carboxylic acid] | < 0.1 | < 0.1 | 0.1 to 1 | < 0.1 | 1 to 10 | C (C represents an MIC of <1 μg/mL) | C (C represents an MIC of <1 μg/mL) | B (B represents an MIC between 1 and 16 μg/mL inclusive) | C (C represents an MIC of <1 μg/mL) | B (B represents an MIC between 1 and 16 μg/mL inclusive) | B (B represents an MIC between 1 and 16 μg/mL inclusive)
NNC(=O)Cn1nnc(CC(=O)N[C@H]2Cc3cccc(C(=O)O)c3OB2O)n1 [Example 96, (R)-3-(2-(2-(2-hydrazinyl-2-oxoethyl)-2H-tetrazol-5-yl)acetamido)-2-hydroxy-3,4-dihydro-2H-benzo[e][1,2]oxaborinine-8-carboxylic acid] | < 0.1 | < 0.1 | 0.1 to 1 | < 0.1 | < 0.1 | C (C represents an MIC of <1 μg/mL) | C (C represents an MIC of <1 μg/mL) | B (B represents an MIC between 1 and 16 μg/mL inclusive) | C (C represents an MIC of <1 μg/mL) | B (B represents an MIC between 1 and 16 μg/mL inclusive) | B (B represents an MIC between 1 and 16 μg/mL inclusive)
O=C(Cn1cnnn1)N[C@H]1Cc2cccc(C(=O)O)c2OB1O [Example 97, (R)-3-(2-(1H-tetrazol-1-yl)acetamido)-2-hydroxy-3,4-dihydro-2H-benzo[e][1,2]oxaborinine-8-carboxylic acid] | < 0.1 | < 0.1 | 0.1 to 1 | < 0.1 | < 0.1 | C (C represents an MIC of <1 μg/mL) | C (C represents an MIC of <1 μg/mL) | C (C represents an MIC of <1 μg/mL) | B (B represents an MIC between 1 and 16 μg/mL inclusive) | B (B represents an MIC between 1 and 16 μg/mL inclusive) | C (C represents an MIC of <1 μg/mL)
